The values that follow come from publication PMC5608352, “Formyl peptide derived lipopeptides disclose differences between the receptors in mouse and men and call the pepducin concept in question” (PLoS ONE, 2017).

Residues, ends and D or L forms follow the SMILES beside them. *: point of attachment. Palmitoyl = CCCCCCCCCCCCCCCC(=O)*

One assay deals with T1, mouse neutrophils (Mus musculus, UniProt O88536).
T1 sequence (O88536 1-351): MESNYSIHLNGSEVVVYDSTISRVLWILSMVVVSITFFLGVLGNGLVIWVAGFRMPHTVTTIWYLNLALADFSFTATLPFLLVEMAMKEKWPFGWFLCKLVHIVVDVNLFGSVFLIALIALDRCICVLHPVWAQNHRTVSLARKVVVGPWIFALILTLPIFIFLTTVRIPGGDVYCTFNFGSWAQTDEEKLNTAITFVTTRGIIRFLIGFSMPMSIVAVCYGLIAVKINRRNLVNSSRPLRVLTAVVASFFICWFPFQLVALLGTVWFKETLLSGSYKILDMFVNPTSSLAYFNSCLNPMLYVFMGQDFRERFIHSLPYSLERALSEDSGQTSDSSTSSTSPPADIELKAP
Briefly: Direct activation: superoxide release (isoluminol/HRP chemiluminescence), WT mouse bone marrow neutrophils. Particulars: approximate value given in running text. The assay is classed as cell-based. The text has this: (§1) Mice (8–12 weeks of age) were killed by cervical dislocation, the femurs and tibias were removed and freed of soft tissue attachments, and the extreme distal tip of each extremity was cut off. KRG without Ca^2+ and Mg^2+ (KRG-) was forced through the bone by using a 1-mL syringe with a 27-gauge needle. After dispersing cell clumps and removing the debris, the bone marrow granulocytes were isolated according to an earlier described procedure with some modifications. Briefly, a cell suspension in 2 mL of KRG- was laid on top of a three-layer Percoll gradient (1.095, 1.085, and 1.070 g/mL). The density of each Percoll solution was verified using density marker beads. After centrifugation at 500 × g for 30 min at 4°C in a swinging bucket rotor, the lowest band (1.085/1.095 g/mL interface) was collected as the neutrophil fraction. After washing with KRG-, remaining red blood cells were eliminated by hypotonic lysis. After a final wash with KRG-, the cells were resuspended in KRG. The cell number and population of bone marrow cells were determined by flow cytometry based on forward scatter (size) and side scatter (density) localization.
NADPH-oxidase activity was determined using an isoluminol and HRP-enhanced chemiluminescence (CL) system that allow for the determination of superoxide production. The CL activity was measured in a six-channel Biolumat LB 9505 apparatus (Berthold Co., Wildbad, Germany), using disposable 4-mL polypropylene tubes with 1 mL reaction mixture. The tubes contained 4 U HRP and 10 μg/mL isoluminol together with the cells that were equilibrated in the Biolumat for 5 min at 37°C, after which the stimulus solution (100 μL) was added. The light emission was recorded continuously over time and presented as superoxide production (in arbitrary light units, cpm x10^-6) as a function of time (min). The activity before stimulus addition was recorded as basal line and this activity was not changed in vehicle control samples. Since the FPR/Fpr-mediated superoxide production with respect to the onset and decline are very similar, the peak activities were used to compare the responses induced.
Naïve bone marrow cells produce very low levels of superoxide upon stimulation and to increase this production the cells were routinely primed for one hour at RT followed by TNF-α (10 ng/mL, final concentration) priming for a period of 20 min at 37°C [10]. The cells were then kept on ice until further analysis, as described above. The reason for choosing the chemiluminescence based NADPH-oxidase assay system was that very few cells are required, allowing us to monitor and quantify receptor-mediated events with the limited number of mouse bone marrow neutrophils available.
Data analysis was performed using Graph Pad Prism 7.0. The EC50/IC50 values were determined from experiments in which the activities were normalized to the response induced by maximal response or induced by agonist in the absence of inhibitor. The statistical analysis was performed on raw data using Student’s t-test when two groups were compared or one-way ANOVA with Dunnett’s multiple comparisons test in comparison to the control response when three groups were compared. * p ≤ 0.05 was considered significant.

Assay [1] addresses T2, Fpr2 (Mus musculus, UniProt O88536).
T2 construct: WT mouse neutrophils (5 x 10^4 cells) were pre-incubated without (solid line) or with mF2Pal16; endogenous in cells; host or cells: bone marrow neutrophils of C57BL/6 wild-type mice, TNF-alpha primed
T2 sequence (O88536 1-351): T1 sequence (O88536 1-351)
Briefly: Inhibition of F2Pal16-induced superoxide release, WT mouse neutrophils. The class given is cell-based. The settings on record: Boc2 2 μM or peptidomimetic inhibitor 1 μM (five experiments), or mF2Pal16 500 nM against F2Pal16 500 nM (three experiments); 5 min pre-incubation.
Excerpt: as §1
NADPH-oxidase activity was determined using an isoluminol and HRP-enhanced chemiluminescence (CL) system that allow for the determination of superoxide production. The CL activity was measured in a six-channel Biolumat LB 9505 apparatus (Berthold Co., Wildbad, Germany), using disposable 4-mL polypropylene tubes with 1 mL reaction mixture. […] The light emission was recorded continuously over time and presented as superoxide production (in arbitrary light units, cpm x10^-6) as a function of time (min). The activity before stimulus addition was recorded as basal line and this activity was not changed in vehicle control samples. […]
Data analysis was performed using Graph Pad Prism 7.0. The EC50/IC50 values were determined from experiments in which the activities were normalized to the response induced by maximal response or induced by agonist in the absence of inhibitor. […]

Assay [2] deals with T2, Fpr2. Set-up: method as in PMID 27614010. The settings on record: ref [12]; cited from earlier work. The text has this: When looking at the FPRs in different species it is clear that the receptor family has a complex evolutionary history, as illustrated by the fact that the number of genes in the family vary markedly in mouse and man. […] As different mouse models constitute important tools for translational studies aiming to understa ... || Genetically modified mouse strains and mouse disease models provide excellent tools to study the function of neutrophil FPRs in vivo. Such studies have indicated Fprs (in particular Fpr2) as important regulators of the physiological processes leading to resolution of inflammation. However, a direct translation of mouse data to human studies is hampered due to the distant phylogenetic relationship between mouse and human receptors. In addition to the different number of Fpr genes in mice and humans and an incomplete understanding of the evolutionary relationship between human FPRs ...

The next assay relates to Fpr2^-/- neutrophils. In words: Direct activation: superoxide release, Fpr2^-/- mouse neutrophils compared with WT. The class given is cell-based. Particulars: fMIFL 10 nM, reference response. The text has this: C57BL/6 wild-type mice were purchased from Charles River Laboratories and Fpr2^−/− mice generated as described previously, were generously provided by Dr Ji Ming Wang, Frederick National Laboratory for Cancer Research, USA. Mice were kept under standard temperature and light conditions and fed laboratory chow and water ad libitum, at the Department of Rheumatology and Inflammation Research, University of Gothenburg. Sex matched WT and Fpr2^-/- animals (age 8–10 weeks) were used to isolated bone marrow derived neutrophils. The studies performed were approved by the Ethical Committee for Animal Experimentation, Göteborg, Sweden.
Mice (8–12 weeks of age) were killed by cervical dislocation, the femurs and tibias were removed and freed of soft tissue attachments, and the extreme distal tip of each extremity was cut off. […] The cell number and population of bone marrow cells were determined by flow cytometry based on forward scatter (size) and side scatter (density) localization.
NADPH-oxidase activity was determined using an isoluminol and HRP-enhanced chemiluminescence (CL) system that allow for the determination of superoxide production. The CL activity was measured in a six-channel Biolumat LB 9505 apparatus (Berthold Co., Wildbad, Germany), using disposable 4-mL polypropylene tubes with 1 mL reaction mixture. […]

What is called EC50 is the concentration that produces a half-maximal response. A lower EC50 goes with greater potency. In the case of `CCCCCCCCCCCCCCCC(=O)N[C@@H](CCCCN)C(=O)N[C@H](C(=O)N[C@@H](Cc1c[nH]cn1)C(=O)N[C@@H](CCCCN)C(=O)N[C@@H](CCC(N)=O)C(=O)NCC(=O)N[C@@H](CC(C)C)C(=O)N[C@H](C(=O)N[C@@H](CCCCN)C(=O)N[C@@H](CO)C(=O)N[C@@H](CO)C(=O)N[C@@H](CCCNC(=N)N)C(=O)N1CCC[C@H]1C(=O)N[C@@H](CC(C)C)C(=O)N[C@@H](CCCNC(=N)N)C(=O)N[C@H](C(=O)O)C(C)C)[C@@H](C)CC)[C@@H](C)CC` [F1Pal16] (Palmitoyl-KIHKQGLIKSSRPLRV-OH), on mouse neutrophils, the EC50 is around 0.3 µM.

The compound `CCCCCCCCCCCCCCCC(=O)N[C@@H](CCCCN)C(=O)N[C@H](C(=O)N[C@@H](Cc1c[nH]cn1)C(=O)N[C@@H](CCCCN)C(=O)N[C@@H](CCCCN)C(=O)NCC(=O)N[C@@H](CCSC)C(=O)N[C@H](C(=O)N[C@@H](CCCCN)C(=O)N[C@@H](CO)C(=O)N[C@@H](CO)C(=O)N[C@@H](CCCNC(=N)N)C(=O)N1CCC[C@H]1C(=O)N[C@@H](CC(C)C)C(=O)N[C@@H](CCCNC(=N)N)C(=O)N[C@H](C(=O)O)C(C)C)[C@@H](C)CC)[C@@H](C)CC` [F2Pal16] (Palmitoyl-KIHKKGMIKSSRPLRV-OH) came in with an EC50 at mouse neutrophils of around 0.3 µM.

For the compound Lau-(Lys-βNSpe)6-NH2, the “effect of inhibitor on F2Pal16 response, WT mouse neutrophils” value at Fpr2 [1] was “significantly reduced”.

For the compound WKYMVM [FPR2 specific agonist], the “activity at mouse Fprs (earlier work)” value on Fpr2 [2] is given as “low affinity for their mouse orthologous”.

On to fMIFL [reference compound], for which the “activity at mouse Fprs (earlier work)” value on Fpr2 [2] is “potently and selectively activate Fpr1”. For the same compound, the “fMIFL superoxide response in Fpr2^-/- versus WT neutrophils” value with Fpr2^-/- neutrophils was “comparable in WT and Fpr2 deficient neutrophils”.

With fMLF, the “activity at mouse Fprs (earlier work)” value on Fpr2 [2] is “low affinity for their mouse orthologous”.
